Columns and labels:
[1] = target: T1, Alpha-1D adrenergic receptor (Homo sapiens, UniProt P25100); assay: Selectivity interaction (GPCR panel (PDSP screen)) EUB0000545a ADRA1D
T1 sequence (P25100 whole entry): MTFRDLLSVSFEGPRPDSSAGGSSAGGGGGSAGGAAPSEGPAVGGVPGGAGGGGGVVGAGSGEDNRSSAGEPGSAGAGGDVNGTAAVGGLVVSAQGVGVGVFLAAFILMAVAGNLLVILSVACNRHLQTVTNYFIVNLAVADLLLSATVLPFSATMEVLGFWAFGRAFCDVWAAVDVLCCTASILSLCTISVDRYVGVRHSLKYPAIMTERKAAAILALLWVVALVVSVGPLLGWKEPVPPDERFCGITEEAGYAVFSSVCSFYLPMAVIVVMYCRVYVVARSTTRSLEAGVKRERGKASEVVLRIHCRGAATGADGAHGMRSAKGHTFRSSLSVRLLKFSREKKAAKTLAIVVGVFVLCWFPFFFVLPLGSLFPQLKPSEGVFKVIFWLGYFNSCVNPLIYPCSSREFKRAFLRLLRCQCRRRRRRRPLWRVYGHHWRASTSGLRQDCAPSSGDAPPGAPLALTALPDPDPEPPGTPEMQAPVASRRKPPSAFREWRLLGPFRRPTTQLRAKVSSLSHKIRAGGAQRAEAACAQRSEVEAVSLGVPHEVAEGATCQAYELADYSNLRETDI

[2] = target: Dual specificity tyrosine-phosphorylation-regulated kinase 1B (Homo sapiens, UniProt Q9Y463); assay: Selectivity interaction (KinomeScan (DiscoverX)) EUB0000545a DYRK1B; conditions: at 1 µM
Focal adhesion kinase 1 = Focal adhesion kinase 1 (Homo sapiens, UniProt Q05397); assay: Selectivity interaction (KinomeScan (DiscoverX)) EUB0000545a PTK2; conditions: at 1 µM
[3] = target: Rho-associated protein kinase 1 (Homo sapiens) (UniProt Q13464); assay: Selectivity interaction (KinomeScan (DiscoverX)) EUB0000545a ROCK1; conditions: at 1 µM
D(1A) dopamine receptor = D(1A) dopamine receptor (Homo sapiens, UniProt P21728); assay: Selectivity interaction (GPCR panel (PDSP screen)) EUB0000335a DRD1
Chain of D(1A) dopamine receptor (P21728 whole entry): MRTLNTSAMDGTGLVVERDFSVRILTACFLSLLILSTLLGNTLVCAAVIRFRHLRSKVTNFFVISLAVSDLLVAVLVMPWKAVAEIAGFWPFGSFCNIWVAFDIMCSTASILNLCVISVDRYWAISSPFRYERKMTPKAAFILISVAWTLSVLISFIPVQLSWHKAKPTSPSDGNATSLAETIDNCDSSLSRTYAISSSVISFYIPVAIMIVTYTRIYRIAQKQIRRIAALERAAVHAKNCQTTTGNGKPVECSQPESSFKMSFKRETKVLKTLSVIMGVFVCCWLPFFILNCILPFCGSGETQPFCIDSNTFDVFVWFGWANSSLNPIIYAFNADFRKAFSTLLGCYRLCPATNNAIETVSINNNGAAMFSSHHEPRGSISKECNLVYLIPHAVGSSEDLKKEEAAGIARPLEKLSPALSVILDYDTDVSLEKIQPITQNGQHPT

[4] = target: Cyclin-dependent kinase 3 (Homo sapiens) (UniProt Q00526); assay: Selectivity interaction (KinomeScan (DiscoverX)) EUB0000335a CDK3; conditions: at 1 µM
[5] = target: Mitotic checkpoint serine/threonine-protein kinase BUB1 (Homo sapiens) (UniProt O43683); assay: Selectivity interaction (KinomeScan (DiscoverX)) EUB0000335a BUB1; conditions: at 1 µM
[6] = target: Serine/threonine-protein kinase WNK2 (Homo sapiens) (UniProt Q9Y3S1); assay: Selectivity interaction (KinomeScan (DiscoverX)) EUB0000335a WNK2; conditions: at 1 µM
[7] = target: T2, Mitogen-activated protein kinase kinase kinase 13 (Homo sapiens) (UniProt O43283); assay: Selectivity interaction (KinomeScan (DiscoverX)) EUB0000335a MAP3K13; conditions: at 1 µM
T2 sequence (whole entry): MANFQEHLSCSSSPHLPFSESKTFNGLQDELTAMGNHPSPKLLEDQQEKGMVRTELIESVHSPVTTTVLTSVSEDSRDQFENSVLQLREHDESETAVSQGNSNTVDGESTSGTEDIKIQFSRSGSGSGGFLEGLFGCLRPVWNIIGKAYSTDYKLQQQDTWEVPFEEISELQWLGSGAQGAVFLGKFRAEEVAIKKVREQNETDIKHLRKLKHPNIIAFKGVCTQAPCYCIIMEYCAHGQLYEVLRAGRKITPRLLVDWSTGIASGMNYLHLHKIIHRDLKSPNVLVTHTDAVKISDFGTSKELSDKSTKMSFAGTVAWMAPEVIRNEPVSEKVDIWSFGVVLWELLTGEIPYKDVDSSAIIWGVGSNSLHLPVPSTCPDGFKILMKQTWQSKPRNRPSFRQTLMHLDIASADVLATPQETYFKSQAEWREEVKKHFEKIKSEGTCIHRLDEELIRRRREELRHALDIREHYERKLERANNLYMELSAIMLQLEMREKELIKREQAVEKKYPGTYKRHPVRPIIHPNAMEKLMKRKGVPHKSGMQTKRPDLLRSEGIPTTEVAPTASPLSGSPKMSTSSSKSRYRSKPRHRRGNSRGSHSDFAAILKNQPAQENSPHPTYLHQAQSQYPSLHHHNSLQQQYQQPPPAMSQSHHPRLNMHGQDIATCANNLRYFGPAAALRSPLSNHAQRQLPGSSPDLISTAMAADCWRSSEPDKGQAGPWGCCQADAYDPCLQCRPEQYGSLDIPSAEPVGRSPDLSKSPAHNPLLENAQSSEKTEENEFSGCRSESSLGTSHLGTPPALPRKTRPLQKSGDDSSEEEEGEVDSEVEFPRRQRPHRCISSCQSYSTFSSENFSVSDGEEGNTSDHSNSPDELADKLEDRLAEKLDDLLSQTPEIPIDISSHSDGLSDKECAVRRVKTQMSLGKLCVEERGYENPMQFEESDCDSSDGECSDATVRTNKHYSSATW

[8] = target: Receptor-interacting serine/threonine-protein kinase 1 (Homo sapiens) (UniProt Q13546); assay: Selectivity interaction (KinomeScan (DiscoverX)) EUB0000335a RIPK1; conditions: at 1 µM
Chain of Receptor-interacting serine/threonine-protein kinase 1 (Homo sapiens) (Q13546 whole entry): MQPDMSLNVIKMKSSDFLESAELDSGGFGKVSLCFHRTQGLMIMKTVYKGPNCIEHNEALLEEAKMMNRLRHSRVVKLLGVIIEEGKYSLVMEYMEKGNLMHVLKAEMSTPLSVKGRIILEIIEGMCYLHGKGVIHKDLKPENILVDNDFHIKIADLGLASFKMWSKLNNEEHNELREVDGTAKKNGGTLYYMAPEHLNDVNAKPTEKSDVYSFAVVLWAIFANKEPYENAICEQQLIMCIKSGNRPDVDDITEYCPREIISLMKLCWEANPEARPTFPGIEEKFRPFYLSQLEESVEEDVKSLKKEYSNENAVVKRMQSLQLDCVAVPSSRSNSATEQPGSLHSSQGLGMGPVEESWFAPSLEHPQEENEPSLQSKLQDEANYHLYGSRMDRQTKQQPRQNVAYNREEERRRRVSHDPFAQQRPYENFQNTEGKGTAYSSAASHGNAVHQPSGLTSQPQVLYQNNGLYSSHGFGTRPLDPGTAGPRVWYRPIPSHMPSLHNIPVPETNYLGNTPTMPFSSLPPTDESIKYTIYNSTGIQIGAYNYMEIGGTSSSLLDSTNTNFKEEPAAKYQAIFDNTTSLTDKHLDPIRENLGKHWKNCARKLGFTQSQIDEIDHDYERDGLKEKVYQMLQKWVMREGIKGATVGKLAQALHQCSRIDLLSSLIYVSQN

[9] = target: Serine/threonine-protein kinase Chk2 (Homo sapiens, UniProt O96017); assay: Selectivity interaction (KinomeScan (DiscoverX)) EUB0000542a CHEK2; conditions: at 1 µM
Chain of Serine/threonine-protein kinase Chk2 (O96017 whole entry): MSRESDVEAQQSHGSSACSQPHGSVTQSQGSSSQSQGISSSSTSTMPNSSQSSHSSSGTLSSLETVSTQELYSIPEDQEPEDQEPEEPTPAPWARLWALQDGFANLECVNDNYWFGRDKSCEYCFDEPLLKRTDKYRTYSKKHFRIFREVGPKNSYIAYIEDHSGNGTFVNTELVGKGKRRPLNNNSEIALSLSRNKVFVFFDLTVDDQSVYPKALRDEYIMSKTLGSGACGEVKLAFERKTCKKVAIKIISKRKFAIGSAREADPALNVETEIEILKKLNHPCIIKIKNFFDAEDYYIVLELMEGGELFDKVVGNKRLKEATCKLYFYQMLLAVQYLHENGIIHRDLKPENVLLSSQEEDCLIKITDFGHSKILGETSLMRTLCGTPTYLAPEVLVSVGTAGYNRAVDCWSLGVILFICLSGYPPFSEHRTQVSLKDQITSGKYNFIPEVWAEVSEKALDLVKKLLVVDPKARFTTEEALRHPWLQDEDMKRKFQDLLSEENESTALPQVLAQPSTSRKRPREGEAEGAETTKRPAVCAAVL

[10] = target: Polyunsaturated fatty acid 5-lipoxygenase (Homo sapiens) (UniProt P09917); assay: (§1) Selectivity interaction (Eurofins-Panlabs screen) EUB0000542a ALOX5; conditions: at 10 µM
Chain of Polyunsaturated fatty acid 5-lipoxygenase (Homo sapiens) (P09917 whole entry): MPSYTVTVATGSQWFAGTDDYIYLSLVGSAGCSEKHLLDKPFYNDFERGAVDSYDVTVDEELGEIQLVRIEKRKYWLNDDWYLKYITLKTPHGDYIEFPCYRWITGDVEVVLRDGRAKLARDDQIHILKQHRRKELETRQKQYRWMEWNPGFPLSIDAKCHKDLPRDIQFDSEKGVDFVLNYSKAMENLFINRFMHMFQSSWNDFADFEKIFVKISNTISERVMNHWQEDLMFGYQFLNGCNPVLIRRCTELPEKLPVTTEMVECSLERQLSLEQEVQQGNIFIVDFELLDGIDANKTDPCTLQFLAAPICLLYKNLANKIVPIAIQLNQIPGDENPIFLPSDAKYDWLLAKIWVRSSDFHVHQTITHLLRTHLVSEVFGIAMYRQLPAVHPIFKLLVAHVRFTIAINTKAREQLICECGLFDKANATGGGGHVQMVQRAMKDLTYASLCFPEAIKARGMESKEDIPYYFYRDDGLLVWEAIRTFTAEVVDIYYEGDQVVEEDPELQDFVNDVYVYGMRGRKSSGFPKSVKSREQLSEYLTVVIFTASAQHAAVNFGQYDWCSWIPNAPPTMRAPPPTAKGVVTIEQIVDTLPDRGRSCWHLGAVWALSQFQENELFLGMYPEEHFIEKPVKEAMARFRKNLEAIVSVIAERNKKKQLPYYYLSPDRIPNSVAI

[11] = target: Polyunsaturated fatty acid 5-lipoxygenase (Homo sapiens, UniProt P09917); assay: as §1
Chain of Polyunsaturated fatty acid 5-lipoxygenase (P09917 whole entry): as above

[12] = target: Tyrosine-protein kinase receptor TYRO3 (Homo sapiens) (UniProt Q06418); assay: Selectivity interaction (KinomeScan (DiscoverX)) EUB0000542a TYRO3; conditions: at 1 µM
Chain of Tyrosine-protein kinase receptor TYRO3 (Homo sapiens) (Q06418 whole entry): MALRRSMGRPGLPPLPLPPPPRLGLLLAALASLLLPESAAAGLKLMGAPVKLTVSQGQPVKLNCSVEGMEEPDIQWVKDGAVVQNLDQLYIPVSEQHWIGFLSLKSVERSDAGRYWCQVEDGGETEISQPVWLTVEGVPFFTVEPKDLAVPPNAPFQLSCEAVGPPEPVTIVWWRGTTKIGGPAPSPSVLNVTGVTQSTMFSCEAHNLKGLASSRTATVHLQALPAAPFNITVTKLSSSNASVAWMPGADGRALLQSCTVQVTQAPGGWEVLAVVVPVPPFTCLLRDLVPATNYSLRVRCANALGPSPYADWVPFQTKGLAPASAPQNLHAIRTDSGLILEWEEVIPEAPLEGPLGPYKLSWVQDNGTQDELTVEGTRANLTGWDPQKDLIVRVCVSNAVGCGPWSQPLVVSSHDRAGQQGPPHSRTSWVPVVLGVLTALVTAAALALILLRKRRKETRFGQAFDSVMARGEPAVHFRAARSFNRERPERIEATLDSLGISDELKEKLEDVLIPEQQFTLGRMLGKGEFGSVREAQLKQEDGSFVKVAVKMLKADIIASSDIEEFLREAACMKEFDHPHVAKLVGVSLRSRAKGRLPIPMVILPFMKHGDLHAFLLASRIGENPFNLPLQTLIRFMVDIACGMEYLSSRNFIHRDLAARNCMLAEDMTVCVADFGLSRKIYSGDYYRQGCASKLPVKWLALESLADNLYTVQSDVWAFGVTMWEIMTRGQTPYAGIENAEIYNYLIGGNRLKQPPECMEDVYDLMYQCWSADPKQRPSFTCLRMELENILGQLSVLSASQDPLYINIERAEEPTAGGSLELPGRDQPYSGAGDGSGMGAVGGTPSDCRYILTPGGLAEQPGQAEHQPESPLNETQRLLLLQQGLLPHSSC

[13] = target: Tyrosine-protein kinase JAK1 (Homo sapiens, UniProt P23458); assay: Selectivity interaction (KinomeScan (DiscoverX)) EUB0000542a JAK1@kinase 2; conditions: at 1 µM
Chain of Tyrosine-protein kinase JAK1 (P23458 whole entry): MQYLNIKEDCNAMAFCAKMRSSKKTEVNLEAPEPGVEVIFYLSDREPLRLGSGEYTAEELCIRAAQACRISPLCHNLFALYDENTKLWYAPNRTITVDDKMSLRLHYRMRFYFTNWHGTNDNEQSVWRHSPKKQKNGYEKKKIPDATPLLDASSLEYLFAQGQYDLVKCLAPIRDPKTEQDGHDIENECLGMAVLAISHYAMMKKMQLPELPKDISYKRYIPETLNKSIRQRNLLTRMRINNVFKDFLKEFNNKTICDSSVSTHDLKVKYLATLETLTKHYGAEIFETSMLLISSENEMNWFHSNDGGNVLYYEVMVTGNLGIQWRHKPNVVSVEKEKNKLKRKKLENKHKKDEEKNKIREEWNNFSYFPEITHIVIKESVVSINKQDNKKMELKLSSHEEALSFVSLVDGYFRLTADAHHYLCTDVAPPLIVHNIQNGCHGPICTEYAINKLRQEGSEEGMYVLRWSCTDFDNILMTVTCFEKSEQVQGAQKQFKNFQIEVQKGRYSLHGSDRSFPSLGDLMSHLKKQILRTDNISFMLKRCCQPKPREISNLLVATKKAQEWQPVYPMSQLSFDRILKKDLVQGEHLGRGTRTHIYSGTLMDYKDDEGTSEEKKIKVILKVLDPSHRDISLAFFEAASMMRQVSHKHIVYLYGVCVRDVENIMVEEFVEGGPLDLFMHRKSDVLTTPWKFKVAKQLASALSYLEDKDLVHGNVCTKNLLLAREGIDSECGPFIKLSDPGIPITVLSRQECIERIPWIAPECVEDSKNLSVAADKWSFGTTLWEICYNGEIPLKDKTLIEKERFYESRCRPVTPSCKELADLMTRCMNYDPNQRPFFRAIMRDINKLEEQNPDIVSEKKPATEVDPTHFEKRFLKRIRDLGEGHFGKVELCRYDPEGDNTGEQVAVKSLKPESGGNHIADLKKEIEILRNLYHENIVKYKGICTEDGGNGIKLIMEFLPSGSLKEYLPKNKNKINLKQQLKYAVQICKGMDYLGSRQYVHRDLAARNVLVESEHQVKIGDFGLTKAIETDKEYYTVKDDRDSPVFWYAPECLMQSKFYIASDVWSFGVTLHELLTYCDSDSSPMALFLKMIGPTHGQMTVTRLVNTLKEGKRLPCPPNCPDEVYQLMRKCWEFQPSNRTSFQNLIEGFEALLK

[14] = target: Thromboxane-A synthase (Homo sapiens) (UniProt P24557); assay: (§2) Selectivity interaction (Eurofins-Panlabs screen) EUB0000542a CYP5A1; conditions: at 10 µM
Chain of Thromboxane-A synthase (Homo sapiens) (P24557 whole entry): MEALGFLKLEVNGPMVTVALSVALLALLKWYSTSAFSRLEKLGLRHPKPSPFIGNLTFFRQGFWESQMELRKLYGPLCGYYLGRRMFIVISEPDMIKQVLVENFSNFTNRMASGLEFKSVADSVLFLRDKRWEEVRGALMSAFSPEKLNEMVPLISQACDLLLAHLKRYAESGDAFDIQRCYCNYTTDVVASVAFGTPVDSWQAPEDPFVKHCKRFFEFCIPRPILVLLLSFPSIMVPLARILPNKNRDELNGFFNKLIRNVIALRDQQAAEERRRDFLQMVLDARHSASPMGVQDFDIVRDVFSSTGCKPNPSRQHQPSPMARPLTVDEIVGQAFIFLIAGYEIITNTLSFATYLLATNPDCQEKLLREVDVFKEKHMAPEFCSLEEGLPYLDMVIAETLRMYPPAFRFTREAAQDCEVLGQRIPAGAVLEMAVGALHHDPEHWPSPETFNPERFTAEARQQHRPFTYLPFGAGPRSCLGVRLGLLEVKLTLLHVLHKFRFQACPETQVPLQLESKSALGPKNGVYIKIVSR

Thromboxane-A synthase = Thromboxane-A synthase (Homo sapiens, UniProt P24557); assay: as §2
Chain of Thromboxane-A synthase (P24557 whole entry): as above

`CC(=O)N1CCC(c2ccc(C(=O)NC3=NCCN3)cc2C(F)(F)F)CC1` [BI 0054] gave a Ki [1] of over 10 µM, a % of control [2] of 37% and a % of control (Focal adhesion kinase 1) of 17%. For the same compound, the % of control [3] was 0.5%.

With `O=C(NCc1ncc(C(F)(F)F)cc1Cl)c1ccc2c(c1)C1(CCS(=O)(=O)CC1)[C@@H](C1CC1)N2S(=O)(=O)c1ccc(F)cc1` [BAY-786] the Ki (D(1A) dopamine receptor) was over 10 µM, the % of control [4] was 41% and the % of control [5] was 1.9%. For the same compound, the % of control [6] was 0%, the % of control [7] was 0% and the % of control [8] was 30%.

Compound `CCOCCn1cc(C(=O)Nc2ccc(-n3nc(-c4cccnc4)cc3C(F)(F)F)cn2)ccc1=O` [BI 1935] has a % of control [9] of 0%, a % of inhibition [10] of 66% and an IC50 [11] of 5.92 µM. For the same compound, the % of control [12] was 0%, the % of control [13] was 37% and the % of inhibition [14] was 96%. For the same compound, the IC50 (Thromboxane-A synthase) was 0.132 µM.

From ChEMBL document CHEMBL5212743, “Selectivity Literature for EUbOPEN Chemogenomics Library wave 3” (2023)
